Reference: the supplement of paper PMC10307832

How the values were obtained:
Assay in all cases: relative viability (nuclei count vs DMSO), 5 days (fraction); higher = more cells survive
[1] = compound: NC(=O)c1ccc(N(C(N)=O)c2c(F)cccc2F)nc1-c1ccc(F)cc1F [VX-702] + CC(=O)c1c(C)c2cnc(Nc3ccc(N4CCNCC4)cn3)nc2n(C2CCCC2)c1=O [Palbociclib] (partner 0.5 µM)
How it was run: (§1)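 Lung cancer cell lines in 1536-well plates got either a single drug or a fixed anchor-drug dose together with five library-drug doses (not always all listed) in √10 steps, by pin tool, on the day after seeding. Nuclei were counted after 5 days, and relative viability is the treated-to-vehicle ratio of nuclei counts. Values are medians of duplicate plates.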

[2] = compound: CC(C)(C)c1nc(-c2cccc(NS(=O)(=O)c3c(F)cccc3F)c2F)c(-c2ccnc(N)n2)s1 [Dabrafenib] + C[C@@H](Oc1cc(-c2cnn(C3CCNCC3)c2)cnc1N)c1c(Cl)ccc(F)c1Cl [Crizotinib] (partner 1 µM)
How it was run: as §1

[3] = compound: NC(=O)c1ccc(N(C(N)=O)c2c(F)cccc2F)nc1-c1ccc(F)cc1F [VX-702] + Nc1ncn([C@H]2C[C@H](O)[C@@H](CO)O2)c(=O)n1 [Decitabine] (partner 2 µM)
How it was run: as §1

[4] = compound: CC(C)(C)c1nc(-c2cccc(NS(=O)(=O)c3c(F)cccc3F)c2F)c(-c2ccnc(N)n2)s1 [Dabrafenib] + C[C@]1(O)C[C@@H](c2nc(-c3ccc4ccc(-c5ccccc5)nc4c3)c3c(N)nccn32)C1 [Linsitinib] (partner 1 µM)
How it was run: as §1

| Cell Line | relative viability ([1]; first compound 0.02 µM) | relative viability ([1]; first compound 0.2 µM) | relative viability ([1]; first compound 0.6325 µM) | relative viability ([1]; first compound 2 µM) | relative viability ([2]; first compound 0.003 µM) | relative viability ([2]; first compound 0.009487 µM) | relative viability ([2]; first compound 0.03 µM) | relative viability ([2]; first compound 0.09487 µM) | relative viability ([2]; first compound 0.3 µM) | relative viability ([3]; first compound 0.02 µM) | relative viability ([3]; first compound 0.2 µM) | relative viability ([3]; first compound 0.6325 µM) | relative viability ([3]; first compound 2 µM) | relative viability ([4]; first compound 0.003 µM) | relative viability ([4]; first compound 0.009487 µM) | relative viability ([4]; first compound 0.03 µM) | relative viability ([4]; first compound 0.09487 µM) | relative viability ([4]; first compound 0.3 µM) |
| --- | --- | --- | --- | --- | --- | --- | --- | --- | --- | --- | --- | --- | --- | --- | --- | --- | --- | --- |
| UMC-11 | 0.319 | 0.327 | 0.336 | 0.309 | 0.772 | 0.636 | 0.591 | 0.572 | 0.596 | 0.515 | 0.616 | 0.643 | 0.791 | 1.12 | 1.09 | 0.985 | 0.982 | 1.03 |
| NCI-H1437 | 0.308 | 0.318 | 0.319 | 0.318 | 0.935 | 0.902 | 0.906 | 0.896 | 0.978 | 0.618 | 0.516 | 0.544 | 0.607 | 1.03 | 0.989 | 1.07 | 0.974 | 1.07 |
| EKVX | 0.355 | 0.38 | 0.343 | 0.301 | 0.875 | 1.12 | 0.783 | 0.702 | 1.01 | 0.425 | 0.29 | 0.303 | 0.276 | 0.997 | 1.17 | 0.933 | 0.866 | 1.13 |
| COR-L 105 | 0.38 | 0.409 | 0.432 | 0.38 | 0.843 | 0.987 | 0.67 | 0.719 | 0.851 | 0.619 | 0.722 | 0.696 | 0.636 | 0.959 | 0.943 | 0.908 | 0.88 | 1.07 |
| NCI-H650 | 0.349 | 0.327 | 0.326 | 0.348 |  | 0.715 | 0.657 | 0.515 | 0.551 | 0.385 | 0.344 | 0.3 | 0.324 |  | 1.27 | 0.769 | 0.43 | 0.516 |
| NCI-H1648 | 0.268 | 0.294 | 0.244 | 0.319 |  |  |  |  |  | 0.443 | 0.457 | 0.469 | 0.481 |  |  |  |  |  |
| NCI-H2009 | 0.247 | 0.25 | 0.257 | 0.246 | 0.973 | 1.01 | 1.02 | 0.697 | 0.662 | 0.392 | 0.435 | 0.454 | 0.399 | 1.16 | 1.09 | 1.08 | 1.01 | 0.861 |
| LXF-289 | 0.616 | 0.563 | 0.59 | 0.616 | 0.802 | 0.833 | 0.892 | 0.804 | 0.883 | 0.313 | 0.403 | 0.381 | 0.357 | 0.992 | 0.976 | 1.04 | 0.954 | 1.08 |
| NCI-H647 | 0.349 | 0.373 | 0.378 | 0.495 |  | 1.05 | 1.04 | 0.976 | 1.04 | 0.475 | 0.383 | 0.335 | 0.306 |  | 1.04 | 1.21 | 1.17 | 1.01 |
| NCI-H1666 | 0.683 | 0.69 | 0.595 | 0.526 | 0.988 |  | 1.09 | 0.87 | 1.17 | 0.655 | 0.691 | 0.751 | 0.536 | 0.841 |  | 0.846 | 1.03 | 0.931 |
| NCI-H1734 | 0.347 | 0.288 | 0.323 | 0.308 |  | 0.702 | 0.475 | 0.696 | 0.687 | 0.493 | 0.484 | 0.477 | 0.47 |  | 0.924 | 0.602 | 0.701 | 0.893 |
| BEN | 0.51 | 0.467 | 0.413 | 0.514 |  | 0.985 |  | 0.749 | 1.09 | 0.724 | 0.646 | 0.694 | 0.776 |  | 0.986 |  | 0.883 | 0.938 |
| PC-3 [JPC-3] | 0.568 | 0.517 | 0.566 | 0.553 | 0.95 | 1.03 | 0.978 | 1.02 | 1 | 0.804 | 0.888 | 0.888 | 0.853 | 0.943 | 0.977 | 0.955 | 0.964 | 0.978 |
| NCI-H2228 | 0.604 | 0.763 | 0.676 | 1.07 | 0.457 | 0.504 | 0.52 | 0.495 | 0.571 |  |  |  |  | 0.579 | 0.839 | 0.524 | 0.782 | 0.81 |
| HOP-62 | 0.487 | 0.479 | 0.451 | 0.551 |  | 0.807 | 1.05 | 0.913 | 0.805 | 0.209 | 0.166 | 0.206 | 0.196 |  | 1.07 | 0.804 | 0.831 | 0.977 |
| H3255 | 0.304 | 0.317 | 0.318 | 0.315 | 0.968 | 1.19 | 0.954 | 0.873 | 0.906 | 0.541 |  | 0.671 | 0.625 | 0.944 | 1.06 | 1.01 | 0.832 | 1.03 |
